Source: BindingDB's records for doi:10.1128/AAC.01293-09 (Glaxosmithkline, 2010)

Tests used:
[1] = Inhibition of HIV1 HXB2 gp120-mediated viral infusion into HEK293 cells after 24 hrs by luciferase reporter gene assay
[2] = Inhibition of HIV1 HXB2 gp120-mediated viral infusion into HEK293 cells after 24 hrs by luciferase reporter gene assay in presence of 45 mg/ml human serum albumin
[3] = Inhibition of CXCR4-mediated chemotaxis in SDF1-stimulated human U937 cells treated 15 mins before SDF1 challenge measured after 2 hrs by luminescence assay

IC50 [1]: 0.56 nM
IC50 [2]: 1.71 nM
IC50 [3]: 0.34 nM
SMILES: CN1CCN(c2cccc3nc(CN(C)[C@H]4CCCc5cccnc54)c(CO)n23)CC1 [([5-(4-Methyl-1-piperazinyl)-2-({methyl[(8S)-5,6,7,8-tetrahydro-8-quinolinyl]amino}methyl)imidazo[1,2-a]pyridin-3-yl]methanol)]
